Values of other authors in PMC8513935.

Assays:
[1] = log P octanol/water from commercial databases, averaged (the ESI); conditions: Octanol (wet), 25 C
[2] = experimental, compiled by the authors from the literature (the ESI cites the sources)
[3] = derived by the authors as gas->solvent minus gas->water (a hypothetical dry solvent; the ESI), not a two-phase measurement

## CCCCCl
[1]
  log K of transfer, water to solvent: 2.64 log10 K
[2]; 1,2-Dichloroethane, 25 C
  log K of transfer, gas to solvent: 3.25 log10 K
[2]; 2-Methylpropan-1-ol, 25 C
  log K of transfer, gas to solvent: 2.73 log10 K
[2]; 2-Methylpropan-2-ol, 25 C
  log K of transfer, gas to solvent: 2.71 log10 K
[2]; Butan-2-ol, 25 C
  log K of transfer, gas to solvent: 2.73 log10 K
[2]; CCl4, 25 C
  log K of transfer, gas to solvent: 3.16 log10 K
[2]; Chlorobenzene, 25 C
  log K of transfer, gas to solvent: 3.19 log10 K
[2]; Decan-1-ol, 25 C
  log K of transfer, gas to solvent: 2.69 log10 K
[2]; Di-n-butyl ether, 25 C
  log K of transfer, gas to solvent: 3.01 log10 K
[2]; Diethyl Ether, 25 C
  log K of transfer, gas to solvent: 3.21 log10 K
[2]; Hexadecane, 25 C
  log K of transfer, gas to solvent: 2.72 log10 K
[2]; Hexane, 25 C
  log K of transfer, gas to solvent: 2.95 log10 K
[2]; Octan-1-ol, 25 C
  log K of transfer, gas to solvent: 2.72 log10 K
[2]; Propan-1-ol, 25 C
  log K of transfer, gas to solvent: 2.63 log10 K
[2]; Propanone, 25 C
  log K of transfer, gas to solvent: 3.12 log10 K
[2]; Water, 25 C
  log K of transfer, gas to solvent: 0.12 log10 K
[3]; 1,2-Dichloroethane, 25 C
  log K of transfer, water to solvent: 3.13 log10 K
[3]; 2-Methylpropan-1-ol, 25 C
  log K of transfer, water to solvent: 2.61 log10 K
[3]; 2-Methylpropan-2-ol, 25 C
  log K of transfer, water to solvent: 2.59 log10 K
[3]; Acetone, 25 C
  log K of transfer, water to solvent: 3 log10 K
[3]; Butan-2-ol, 25 C
  log K of transfer, water to solvent: 2.61 log10 K
[3]; CCl4, 25 C
  log K of transfer, water to solvent: 3.04 log10 K
[3]; Chlorobenzene, 25 C
  log K of transfer, water to solvent: 3.07 log10 K
[3]; Decan-1-ol, 25 C
  log K of transfer, water to solvent: 2.57 log10 K
[3]; Di-n-butyl ether, 25 C
  log K of transfer, water to solvent: 2.89 log10 K
[3]; Diethyl Ether, 25 C
  log K of transfer, water to solvent: 3.09 log10 K
[3]; Hexadecane, 25 C
  log K of transfer, water to solvent: 2.6 log10 K
[3]; Hexane, 25 C
  log K of transfer, water to solvent: 2.83 log10 K
[3]; Octan-1-ol(dry), 25 C
  log K of transfer, water to solvent: 2.6 log10 K
[3]; Propan-1-ol, 25 C
  log K of transfer, water to solvent: 2.51 log10 K

## c1ccc2cc3ccccc3cc2c1
[1]
  log K of transfer, water to solvent: 4.45 log10 K
[2]; 2-Methylpropan-1-ol, 25 C
  log K of transfer, gas to solvent: 7.16 log10 K
[2]; 2-Methylpropan-2-ol, 25 C
  log K of transfer, gas to solvent: 7.12 log10 K
[2]; 3-Methylbutan-1-ol, 25 C
  log K of transfer, gas to solvent: 7.28 log10 K
[2]; Acetonitrile, 25 C
  log K of transfer, gas to solvent: 7.66 log10 K
[2]; Benzene, 25 C
  log K of transfer, gas to solvent: 8.38 log10 K
[2]; Butan-1-ol, 25 C
  log K of transfer, gas to solvent: 7.42 log10 K
[2]; Butan-2-ol, 25 C
  log K of transfer, gas to solvent: 7.26 log10 K
[2]; Butanone, 25 C
  log K of transfer, gas to solvent: 8.32 log10 K
[2]; Butyronitrile, 25 C
  log K of transfer, gas to solvent: 8.17 log10 K
[2]; CCl4, 25 C
  log K of transfer, gas to solvent: 8.17 log10 K
[2]; Chlorobenzene, 25 C
  log K of transfer, gas to solvent: 8.45 log10 K
[2]; Chloroform, 25 C
  log K of transfer, gas to solvent: 8.4 log10 K
[2]; Cyclohexane, 25 C
  log K of transfer, gas to solvent: 7.52 log10 K
[2]; Cyclohexanone, 25 C
  log K of transfer, gas to solvent: 8.53 log10 K
[2]; Decan-1-ol, 25 C
  log K of transfer, gas to solvent: 7.71 log10 K
[2]; Di-n-butyl ether, 25 C
  log K of transfer, gas to solvent: 7.79 log10 K
[2]; Dichloromethane, 25 C
  log K of transfer, gas to solvent: 8.62 log10 K
[2]; Diethyl Ether, 25 C
  log K of transfer, gas to solvent: 7.97 log10 K
[2]; Ethanol, 25 C
  log K of transfer, gas to solvent: 7.62 log10 K
[2]; Heptan-1-ol, 25 C
  log K of transfer, gas to solvent: 7.58 log10 K
[2]; Hexadecane, 25 C
  log K of transfer, gas to solvent: 7.56 log10 K
[2]; Hexan-1-ol, 25 C
  log K of transfer, gas to solvent: 7.53 log10 K
[2]; Hexane, 25 C
  log K of transfer, gas to solvent: 7.45 log10 K
[2]; Methanol, 25 C
  log K of transfer, gas to solvent: 7.25 log10 K
[2]; Octan-1-ol, 25 C
  log K of transfer, gas to solvent: 7.55 log10 K
[2]; Pentan-1-ol, 25 C
  log K of transfer, gas to solvent: 7.46 log10 K
[2]; Propan-1-ol, 25 C
  log K of transfer, gas to solvent: 7.36 log10 K
[2]; Propan-2-ol, 25 C
  log K of transfer, gas to solvent: 7.36 log10 K
[2]; Propanone, 25 C
  log K of transfer, gas to solvent: 8.22 log10 K
[2]; Propionitrile, 25 C
  log K of transfer, gas to solvent: 8.07 log10 K
[2]; Tetrahydrofuran, 25 C
  log K of transfer, gas to solvent: 8.71 log10 K
[2]; Toluene, 25 C
  log K of transfer, gas to solvent: 8.3 log10 K
[2]; Water, 25 C
  log K of transfer, gas to solvent: 3.03 log10 K
[3]; 2-Methylpropan-1-ol, 25 C
  log K of transfer, water to solvent: 4.13 log10 K
[3]; 2-Methylpropan-2-ol, 25 C
  log K of transfer, water to solvent: 4.09 log10 K
[3]; 3-Methylbutan-1-ol, 25 C
  log K of transfer, water to solvent: 4.25 log10 K
[3]; Acetone, 25 C
  log K of transfer, water to solvent: 5.19 log10 K
[3]; Acetonitrile, 25 C
  log K of transfer, water to solvent: 4.63 log10 K
[3]; Benzene, 25 C
  log K of transfer, water to solvent: 5.35 log10 K
[3]; Butan-1-ol, 25 C
  log K of transfer, water to solvent: 4.39 log10 K
[3]; Butan-2-ol, 25 C
  log K of transfer, water to solvent: 4.23 log10 K
[3]; Butanone, 25 C
  log K of transfer, water to solvent: 5.29 log10 K
[3]; Butyronitrile, 25 C
  log K of transfer, water to solvent: 5.14 log10 K
[3]; CCl4, 25 C
  log K of transfer, water to solvent: 5.14 log10 K
[3]; Chlorobenzene, 25 C
  log K of transfer, water to solvent: 5.42 log10 K
[3]; Chloroform, 25 C
  log K of transfer, water to solvent: 5.37 log10 K
[3]; Cyclohexane, 25 C
  log K of transfer, water to solvent: 4.49 log10 K
[3]; Cyclohexanone, 25 C
  log K of transfer, water to solvent: 5.5 log10 K
[3]; Decan-1-ol, 25 C
  log K of transfer, water to solvent: 4.68 log10 K
[3]; Di-n-butyl ether, 25 C
  log K of transfer, water to solvent: 4.76 log10 K
[3]; Dichloromethane, 25 C
  log K of transfer, water to solvent: 5.59 log10 K
[3]; Diethyl Ether, 25 C
  log K of transfer, water to solvent: 4.94 log10 K
[3]; Ethanol, 25 C
  log K of transfer, water to solvent: 4.59 log10 K
[3]; Heptan-1-ol, 25 C
  log K of transfer, water to solvent: 4.55 log10 K
[3]; Hexadecane, 25 C
  log K of transfer, water to solvent: 4.54 log10 K
[3]; Hexan-1-ol, 25 C
  log K of transfer, water to solvent: 4.5 log10 K
[3]; Hexane, 25 C
  log K of transfer, water to solvent: 4.42 log10 K
[3]; Methanol, 25 C
  log K of transfer, water to solvent: 4.22 log10 K
[3]; Octan-1-ol(dry), 25 C
  log K of transfer, water to solvent: 4.52 log10 K
[3]; Pentan-1-ol, 25 C
  log K of transfer, water to solvent: 4.43 log10 K
[3]; Propan-1-ol, 25 C
  log K of transfer, water to solvent: 4.33 log10 K
[3]; Propan-2-ol, 25 C
  log K of transfer, water to solvent: 4.33 log10 K
[3]; Propionitrile, 25 C
  log K of transfer, water to solvent: 5.04 log10 K
[3]; Tetrahydrofuran, 25 C
  log K of transfer, water to solvent: 5.68 log10 K
[3]; Toluene, 25 C
  log K of transfer, water to solvent: 5.27 log10 K
